Measurements: paper PMC8297954 (Frontiers in Microbiology, 2021)
Entries after “also recorded” stand apart in the source; their conditions may differ. Read-outs that look alike come from different tables or passages of the source.

Tests used:
[1] = system: HEK293 cells
[2] = system: viral protein U of human immunodeficiency type 1 virus; details: cited from earlier work
[3] = system: transmembrane domain of SARS CoV E protein; details: lipid bilayers ref Torres et al., 2007; cited from earlier work
[4] = system: HCoV-229E E protein; details: cited from earlier work
[5] = system: MHV E protein; details: cited from earlier work
[6] = system: HCoV-229E; details: cited from earlier work
[7] = system: MHV; details: cited from earlier work
[8] = system: SARS CoV 3a protein; details: Xenopus oocytes ref Schwarz et al., 2014; cited from earlier work

Compound | MTT pRK control ([1]; human) | effect on viability of control cells at increasing concentrations [1] | inhibition of viral protein U [2] | also measured
CC(N)C12CC3CC(CC(C3)C1)C2 (stereo not shown) [Rimantadine, rimantadine, reference compound] |  |  |  | MTT pRK control [1]: neutral
O=C(O[C@@H]1Cc2c(O)cc(O)cc2O[C@@H]1c1cc(O)c(O)c(O)c1)c1cc(O)c(O)c(O)c1 [EGCG, epigallocatechin gallate] | 5–50 ↑ |  |  | 
O=c1c(O)c(-c2ccc(O)c(O)c2)oc2cc(O)cc(O)c12 [Quercetin, quercetin] | 10–50 ↑ | proliferative | not | 
NC12CC3CC(CC(C3)C1)C2 [Amantadine, amantadine, reference compound] |  |  |  | MTT pRK control [1]: neutral; inhibition of wild-type transmembrane peptides [3]: inhibited
CCCCC[C@H](O)CC(=O)CCc1ccc(O)c(OC)c1 [6-Gingerol, 6-gingerol] |  |  |  | MTT pRK control [1]: neutral
COc1ccc(-c2cc(=O)c3c(OC)c(OC)c(OC)c(OC)c3o2)cc1OC [Nobiletin, nobiletin] | 5–50 ↑ |  |  | 
Oc1ccc(/C=C/c2cc(O)cc(O)c2)cc1 [Resveratrol, resveratrol] |  |  |  | MTT pRK control [1]: neutral
NC(N)=NC(=O)c1nc(Cl)c(N2CCCCCC2)nc1N [HMA, 5-(N,N-hexamethylene)amiloride] | 10–50 ↓ | cytotoxic |  | inhibition of E protein ion channel conductance [4]: inhibits; inhibition of E protein ion channel conductance [5]: inhibits; inhibition of virus replication [6]: inhibits replication; inhibition of virus replication [7]: inhibits replication
O=c1cc(-c2ccc(O)cc2)oc2cc(O)cc(O)c12 [Apigenin, apigenin] | 5–10↑ 20–50↓ | cytotoxic |  | concentrations that were cytotoxic / induced cell death ([1]; human): 20 to 50 µM
O=C1C[C@@H](c2ccc(O)cc2)Oc2cc(O)cc(O)c21 [Naringenin, naringenin] | 10–50 ↑ |  |  | 
O=c1c(O)c(-c2ccc(O)cc2)oc2cc(O)cc(O)c12 [Kaempferol, kaempferol] | 5–50 ↑ | proliferative | not | inhibition of 3a ion channel [8]: blocks
(–)epicatechin |  |  | not | 
CCCCCCC[C@H](O)CC(=O)CCc1ccc(O)c(OC)c1 [8-Gingerol, 8-gingerol] | 50 ↓ |  |  | 
O=c1c(-c2ccc(O)cc2)coc2cc(O)cc(O)c12 [Genistein, genistein] | 20–50 ↑ | proliferative | inhibits; also recorded: able to inhibit | 
O=c1c(O[C@@H]2O[C@@H](CO)[C@H](O)[C@H]2O)c(-c2ccc(O)cc2)oc2cc(O)cc(O)c12 [juglanin] |  |  |  | inhibition of 3a ion channel [8]: most efficient
(–)epigallocatechin |  |  | not | 
